Assays:
system Xc^− [1] = target: T1, system Xc^− (Homo sapiens, UniProt Q9UPY5); assay: Cystine-induced glutamate release assay; format: cell-based; parameters: endogenous in cells; host or cells: H4 cells; details: H4 cells, sodium-free HEPES buffer, 50 μM L-Cystine, 2 hours, Amplex Red glutamate readout; read-out: pIC50 Cystine-induced glutamate release assay (converted)
T1 sequence (Q9UPY5 1-501): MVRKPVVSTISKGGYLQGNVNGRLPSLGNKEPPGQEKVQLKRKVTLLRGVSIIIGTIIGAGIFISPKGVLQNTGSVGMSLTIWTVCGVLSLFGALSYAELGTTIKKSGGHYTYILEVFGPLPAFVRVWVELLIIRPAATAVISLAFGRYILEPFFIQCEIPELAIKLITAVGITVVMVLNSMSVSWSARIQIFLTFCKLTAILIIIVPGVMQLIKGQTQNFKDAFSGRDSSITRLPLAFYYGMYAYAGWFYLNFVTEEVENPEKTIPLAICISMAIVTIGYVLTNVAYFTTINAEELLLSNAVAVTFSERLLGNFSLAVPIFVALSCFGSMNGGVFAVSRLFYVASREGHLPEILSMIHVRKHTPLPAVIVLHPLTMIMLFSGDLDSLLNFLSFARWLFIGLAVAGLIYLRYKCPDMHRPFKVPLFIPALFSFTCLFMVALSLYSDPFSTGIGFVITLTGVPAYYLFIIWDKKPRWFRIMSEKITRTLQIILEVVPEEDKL
T1 sequence (P08195 1-529 partner): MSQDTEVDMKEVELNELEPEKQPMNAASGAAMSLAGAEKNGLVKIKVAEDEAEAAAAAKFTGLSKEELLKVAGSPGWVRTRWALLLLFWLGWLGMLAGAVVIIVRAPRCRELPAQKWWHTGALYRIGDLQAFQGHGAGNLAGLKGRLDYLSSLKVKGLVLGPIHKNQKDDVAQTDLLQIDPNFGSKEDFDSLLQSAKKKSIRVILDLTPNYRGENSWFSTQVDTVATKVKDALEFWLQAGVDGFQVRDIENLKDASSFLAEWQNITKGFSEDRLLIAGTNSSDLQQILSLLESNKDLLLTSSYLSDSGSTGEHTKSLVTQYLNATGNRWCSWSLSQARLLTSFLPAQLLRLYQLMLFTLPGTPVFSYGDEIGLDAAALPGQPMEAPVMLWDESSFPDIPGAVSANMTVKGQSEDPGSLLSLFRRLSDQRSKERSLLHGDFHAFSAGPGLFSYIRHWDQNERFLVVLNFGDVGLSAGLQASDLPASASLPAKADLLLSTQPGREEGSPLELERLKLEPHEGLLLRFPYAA
In short: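 H4 cells in sodium-free HEPES buffer (pH 7.4), 2 days after plating; glutamate release induced with 50 μM L-cystine plus compound (1% DMSO), 2 h at 37 °C. Supernatant glutamate measured by Amplex Red fluorescence; IC50/pIC50 derived between 1% DMSO and 50 μM erastin controls.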

system Xc^− [2] = target: T1, system Xc^−; assay: [^14C]L-Cystine uptake assay; format: cell-based; parameters: endogenous in cells; host or cells: H4 cells; details: H4 cells, sodium-free HEPES buffer, 0.5 μM L-[14C]Cystine and 4.5 μM L-Cystine, 1 hour at 37° C.; read-out: pIC50 [^14C] L-Cystine uptake assay (converted)
In short: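 H4 cells at 5×10^4 cells/well in sodium-free HEPES buffer were preincubated 15 min with compounds (1% DMSO). Uptake of 0.5 μM [14C]L-cystine plus 4.5 μM unlabelled L-cystine ran 1 hour at 37° C on scintillating plates. IC50 was set between 1% DMSO and 50 μM Erastin controls and expressed as pIC50.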

SMILES	IC50 (system Xc^− [1]) [nM]	IC50 (system Xc^− [2]) [nM]
CC1C(=O)N(CC(=O)Nc2ccc(Cl)c(F)c2)c2cc(N(C)CCN(C)C)nc(F)c2-c2cccnc21 (single isomer, unassigned) [#266, N-(4-chloro-3-fluoro-phenyl)-2-[5-[2-(dimethylamino)ethyl-methyl-amino]-3-fluoro-10-methyl-9-oxo-4,8,12-triazatricyclo[9.4.0.0^2,7]pentadeca-1(15),2,4,6,11,13-hexaen-8-yl]acetamide]	15.8 to 39.8	15.8 to 39.8
COc1nc2c(cc1CO)N(CC(=O)Nc1ccc(Cl)c(F)c1)C(=O)C(C)c1ccccc1-2 (stereo not shown) [#399, N-(4-chloro-3-fluoro-phenyl)-2-[3-(hydroxymethyl)-2-methoxy-7-methyl-6-oxo-7H-pyrido[3,2-d][3]benzazepin-5-yl]acetamide]	39.8 to 100	15.8 to 39.8
CC1C(=O)N(CC(=O)Nc2ccc(Cl)c(F)c2)c2cc(Cl)cc(F)c2-c2ncncc21 (single isomer, unassigned) [#418, 2-[9-chloro-11-fluoro-5-methyl-6-oxo-5H-pyrimido[5,4-d][1]benzazepin-7-yl]-N-(4-chloro-3-fluoro-phenyl)acetamide]	39.8 to 100	39.8 to 100
Cc1cc2c(c(F)n1)-c1cc(F)cnc1C(C)C(=O)N2CC(=O)Nc1ccc(C(C)(F)F)cc1 (single isomer, unassigned) [#263, 2-[3,14-difluoro-5,10-dimethyl-9-oxo-4,8,12-triazatricyclo[9.4.0.0^2,7]pentadeca-1(15),2,4,6,11,13-hexaen-8-yl]-N-[4-(1,1-difluoroethyl)phenyl]acetamide]	< 15.8	< 15.8
Cc1cc2c(cc1C)-n1ccnc1CC(=O)N2CC(=O)Nc1ccc(C(F)(F)F)cc1 [#8, 2-(8,9-dimethyl-5-oxo-4H-imidazo[1,2-a][1,5]benzodiazepin-6-yl)-N-[4-(trifluoromethyl)phenyl]acetamide]	100 to 501	39.8 to 100
Cc1cc2c(c(OCCO)n1)-c1cccnc1[C@@H](C)C(=O)N2CC(=O)Nc1ccc(C(F)F)cc1 [#374, N-[4-(difluoromethyl)phenyl]-2-[(10R)-3-(2-hydroxyethoxy)-5,10-dimethyl-9-oxo-4,8,12-triazatricyclo[9.4.0.0^2,7]pentadeca-1(11),2(7),3,5,12,14-hexaen-8-yl]acetamide]	< 15.8	< 15.8
COc1ccc2c(c1)C(C)C(=O)N(CC(=O)Nc1ccc(C(F)(F)F)cc1)c1cc(C)nc(Cl)c1-2 (stereo not shown) [#393, 2-(1-chloro-9-methoxy-3,7-dimethyl-6-oxo-7H-pyrido[3,4-a][3]benzazepin-5-yl)-N-[4-(trifluoromethyl)phenyl]acetamide]	39.8 to 100	15.8 to 39.8
COc1cc(F)c2c(c1)N(CC(=O)Nc1ccc(C(F)F)cc1)C(=O)C(C)c1ncccc1-2 (single isomer, unassigned) [#315, N-[4-(difluoromethyl)phenyl]-2-[11-fluoro-9-methoxy-5-methyl-6-oxo-5H-pyrido[2,3-d][1]benzazepin-7-yl]acetamide]	< 15.8	< 15.8
Cc1cc2c(c(F)n1)-c1cccnc1[C@@H](C)C(=O)N2CC(=O)Nc1ccc(I)cc1 [#138, 2-[(10R)-3-fluoro-5,10-dimethyl-9-oxo-4,8,12-triazatricyclo[9.4.0^2,7]pentadeca-1(11),2(7),3,5,12,14-hexaen-8-yl]-N-(4-iodophenyl)acetamide]	< 15.8	< 15.8
COc1cc2c(c(OC)n1)-c1cccnc1C(C)C(=O)N2CC(=O)Nc1ccc(C(F)F)cc1 (single isomer, unassigned) [#335, N-[4-(difluoromethyl)phenyl]-2-[3,5-dimethoxy-10-methyl-9-oxo-4,8,12-triazatricyclo[9.4.0.0^2,7]pentadeca-1(15),2(7),3,5,11,13-hexaen-8-yl]acetamide]	< 15.8	< 15.8
Cc1cc2c(c(F)n1)-c1cncnc1C(C)C(=O)N2CC(=O)Nc1ccc(C(F)F)cc1 (single isomer, unassigned) [#218, Enantiomer (8S) or (8S) of (N-[4-(difluoromethyl)phenyl]-2-[15-fluoro-8,13-dimethyl-9-oxo-4,6,10,14-tetrazatricyclo[9.4.0.0^2,7]pentadeca-1(15),2,4,6,11,13-hexaen-10-yl]acetamide]	15.8 to 39.8	100 to 501

Results, then the compound that gave them:

IC50 (system Xc^− [1]) [nM]	IC50 (system Xc^− [2]) [nM]	SMILES
39.8 to 100	39.8 to 100	Cc1cc2c(c(F)n1)-c1cccnc1[C@@H](C)C(=O)N2CC(=O)Nc1ccc(C(F)(F)F)cc1F [#247, 2-[(10R)-3-fluoro-5,10-dimethyl-9-oxo-4,8,12-triazatricyclo[9.4.0.0^2,7]pentadeca-1(11),2(7),3,5,12,14-hexaen-8-yl)-N-[2-fluoro-4-(trifluoromethyl)phenyl]acetamide]
15.8 to 39.8	< 15.8	Cc1cc2c(n(C)c1=O)-c1ccc(F)cc1C(C)C(=O)N2CC(=O)Nc1ccc(Cl)c(F)c1 (stereo not shown) [#354, N-(4-chloro-3-fluoro-phenyl)-2-(9-fluoro-1,3,7-trimethyl-2,6-dioxo-7H-pyrido[3,2-d][3]benzazepin-5-yl)acetamide]
< 15.8	15.8 to 39.8	Cc1cc2c(c(F)n1)-c1cccnc1[C@@H](O)C(=O)N2CC(=O)Nc1ccc(C(F)(F)F)cc1 (single isomer, unassigned) [#211, Enantiomer (10S) or (10R) of 2-[3-fluoro-10-hydroxy-5-methyl-9-oxo-4,8,12-triazatricyclo[9.4.0.0^2,7]pentadeca-1(11),2(7),3,5,12,14-hexaen-8-yl]-N-[4-(trifluoromethyl)phenyl]acetamide]
15.8 to 39.8	< 15.8	Cc1cc2c(c(=O)[nH]1)-c1ccccc1[C@@H](C)C(=O)N2CC(=O)Nc1ccc(C(F)(F)F)cc1 (single isomer, unassigned) [#205, Entnaiomer (7R) or (7S) of 2-[3,7-dimethyl-1,6-dioxo-2,7-dihydropyrido[4,3-d][3]benzazepin-5-yl]-N-[4-(trifluoromethyl)phenyl]acetamide]
39.8 to 100	39.8 to 100	CCn1c(C)cc2c(c1=O)-c1cccnc1CC(=O)N2CC(=O)Nc1ccc(C(F)(F)F)cc1 [#125, 2-(4-ethyl-5-methyl-3,9-dioxo-4,8,12-triazatricyclo[9.4.0.0^2,7]pentadeca-1(15),2(7),5,11,13-pentaen-8-yl)-N-[4-(trifluoromethyl)phenyl]acetamide]
< 15.8	< 15.8	Cc1cc2c(c(Cl)n1)-c1cc(F)cnc1C(C)C(=O)N2CC(=O)Nc1ccc(C(C)(F)F)cc1 (single isomer, unassigned) [#423, 2-(3-chloro-14-fluoro-5,10-dimethyl-9-oxo-4,8,12-triazatricyclo[9.4.0.0^2,7]pentadeca-1(11),2,4,6,12,14-hexaen-8-yl)-N-[4-(1,1-difluoroethyl)phenyl]acetamide]
100 to 501	39.8 to 100	COCC1C(=O)N(CC(=O)Nc2ccc(C(F)(F)F)cc2)c2cc(C)nc(Cl)c2-c2ccccc21 (stereo not shown) [#122, 2-[1-chloro-7-(methoxymethyl)-3-methyl-6-oxo-7H-pyrido[3,4-a][3]benzazepin-5-yl]-N-[4-(trifluoromethyl)phenyl]acetamide]
15.8 to 39.8	< 15.8	Cc1cc2c(c(F)n1)-c1cccnc1[C@@H](C)C(=O)N2CC(=O)Nc1ccc(C2CC2)c(F)c1 [#144, N-(4-cyclopropyl-3-fluoro-phenyl)-2-[(10R)-3-fluoro-5,10-dimethyl-9-oxo-4,8,12-triazatricyclo[9.4.0.0^2,7]pentadeca-1(11),2(7),3,5,12,14-hexaen-8-yl]acetamide]
15.8 to 39.8	< 15.8	CCn1c2c(cc(C)c1=O)N(CC(=O)Nc1ccc(Cl)c(F)c1)C(=O)C(C)c1ccccc1-2 (stereo not shown) [#349, N-(4-chloro-3-fluoro-phenyl)-2-(1-ethyl-3,7-dimethyl-2,6-dioxo-7H-pyrido[3,2-d][3]benzazepin-5-yl)acetamide]

Reference: patent publication US20260217708A1, “FUSED BENZAZEPINE DERIVATIVES FOR USE IN THE TREATMENT OF CANCER AND EPILEPSY” (UCB BIOPHARMA SRL, priority 2023, published 2026)
